# Patent US20260130901A1, “CGRP RECEPTOR ANTAGONIST FOR THE TREATMENT OF MIGRAINE” (ALLERGAN PHARMACEUTICALS INTERNATIONAL LIMITED, priority 2022, published 2026)
# Tested on: participants with migraine (qualifying prodrome events)
# Assay: Phase 3 crossover study: absence of aura at timepoints post dose
# Assay type: in vivo, human
# Details: 100 mg in prodrome, mITT
# Description: A phase 3, multicenter, randomized, double-blind, placebo-controlled, crossover study was carried out to evaluate the efficacy, safety, and tolerability of oral ubrogepant in the acute treatment of migraine when administered during the prodrome. The study evaluated whether treatment during the initial phase of a migraine attack (i.e., the prodrome or premonitory phase) prior to the onset of headache, can attenuate the severity of the headache phase and reduce disability.
# Eligible participants were randomized (1:1) to treatment sequences A or B in this crossover study. Participants randomized to Treatment Sequence A received placebo to treat their first qualifying prodrome event and ubrogepant 100 mg to treat their second qualifying prodrome event. For those randomized to Treatment Sequence B, they received the reverse: ubrogepant 100 mg to treat their first qualifying prodrome event and placebo to treat their second qualifying prodrome event.
# N1 is the number of patients with non-missing aura presence assessment at timepoint.
smiles,measurement,setting,value
"C[C@@H]1[C@H](c2ccccc2)C[C@H](NC(=O)c2cnc3c(c2)C[C@@]2(C3)C(=O)Nc3ncccc32)C(=O)N1CC(F)(F)F [Ubrogepant, (3′S)—N-((3S,5S,6R)-6-methyl-2-oxo-5-phenyl-1-(2,2,2-trifluoroethyl)piperidin-3-yl)-2′-oxo-1′,2′,5,7-tetrahydrospiro[cyclopenta[b]pyridine-6,3′-pyrrolo[2,3-b]pyridine]-3-carboxamide]","Absence of aura, Nonresponder (%)",48 Hours post dose,(2.6) %
same,"Absence of aura, OR vs placebo",48 Hours post dose,3.05
same,"Absence of aura, Responder (%)",48 Hours post dose,(97.4) %
same,"Absence of aura, Nonresponder (%)",1 hour post dose,(38.3) %
same,"Absence of aura, OR vs placebo",1 hour post dose,0.99
same,"Absence of aura, Responder (%)",1 hour post dose,(61.7) %
same,"Absence of aura, Nonresponder (%)",2 hours post dose,(28.1) %
same,"Absence of aura, OR vs placebo",2 hours post dose,1.13
same,"Absence of aura, Responder (%)",2 hours post dose,(71.9) %
same,"Absence of aura, Nonresponder (%)",3 hours post dose,(23.0) %
same,"Absence of aura, OR vs placebo",3 hours post dose,0.96
same,"Absence of aura, Responder (%)",3 hours post dose,(77.0) %
same,"Absence of aura, Nonresponder (%)",4 hours post dose,(19.1) %
same,"Absence of aura, OR vs placebo",4 hours post dose,1.12
same,"Absence of aura, Responder (%)",4 hours post dose,(80.9) %
same,"Absence of aura, Nonresponder (%)",6 hours post dose,(15.3) %
same,"Absence of aura, OR vs placebo",6 hours post dose,1.05
same,"Absence of aura, Responder (%)",6 hours post dose,(84.7) %
same,"Absence of aura, Nonresponder (%)",8 hours post dose,(10.5) %
same,"Absence of aura, OR vs placebo",8 hours post dose,1.10
same,"Absence of aura, Responder (%)",8 hours post dose,(89.5) %
same,"Absence of aura, Nonresponder (%)",24 hours post dose,(5.3) %
same,"Absence of aura, OR vs placebo",24 hours post dose,1.48
same,"Absence of aura, Responder (%)",24 hours post dose,(94.7) %
